Test results as given in publication PMC6240096, “A hPSC-based platform to discover gene-environment interactions that impact human β-cell and dopamine neuron survival” (Nature Communications, 2018).

Columns and labels:
primary human islets = test: Primary human islets, INS and propidium iodide staining; type: cell-based; conditions: 2 mM GSH
Source text: Fig. 1 A high-content screen identifies propargite as a compound that induces pancreatic β-cell death. a Scheme of pancreatic β-cell differentiation and high-content chemical screen. b Chemical structure of two hit compounds: Propargite and Vacor. c Inhibitory curve and IC50 of propargite or Vacor on INS^+ and INS^− cells (n = 8). d, e Immunocytochemistry analysis (d) and survival rate (e) of H1-derived glucose-responding INS^+ and INS^− cells treated with different doses of propargite (n = 8). Pancreatic β-like cells were stained for INS (green) and all cells were counterstained by DAPI (blue). Scale bars, 100 μm. The survival rate was calculated by dividing the average number of cells in propargite-treated conditions by the average number of cells in the DMSO control. f, g Representative live images (f) and fold-change (g) of INS^w/GFP HES3-derived INS-GFP^+ cells treated with 1.6 μM propargite or DMSO control at different time points compared to initial time 0 (n = 3). Scale bars, 100 μm. h, i, j Representative images (h) and cell survival rate (i) or cell death rate (j) of DMSO or propargite-treated human primary islets (n = 3). Pancreatic β-cells were stained with the INS antibody (green) and dead cells were stained with propidium iodide (PI) (red). Scale bars, 200 μm. Scale bars for higher resolution (Zoom) images, […]. Pancreatic β-cell death rate was calculated by defining percentages of INS^+ PI^+ cells in INS^+ cells, and non-β-cell death rate was calculated by percentages of INS^−PI^+ cells in INS^− cells.

MIN6 cells = test: Western blotting of γ-H2A.X and extracellular HMGB1 in MIN6 cells; type: cell-based, mouse; conditions: 2 mM GSH, day 4
Source text: To extract intracellular protein, cells were placed on ice, washed twice with ice-cold PBS and lysed immediately with RIPA buffer (Life Technologies, 89900) supplemented with a protease inhibitor cocktail (Life Technologies, 78440). Cell lysates were then sonicated and the soluble fraction was collected after centrifugation. Protein amount was quantified by the BCA protein assay (Life Technologies, 23227). To extract extracellular HMGB1, tissue culture media were collected and concentrated using Afyon SDS-PAGE sample preparation kit (advansta, K-02101-025). 20 μg of total protein for each sample was mixed with loading buffer and incubated for 5 min at 95 °C before being loaded into NuPAGE® Novex® 4–12% […] Protein Gels (Life Technologies, NP0321BOX) for electrophoresis. Separated proteins were transferred to a PVDF membrane (Millipore, IPSN07852) after electrophoresis. The membrane was blocked with 5% non-fat milk in TBST (50 mM Tris–HCl at pH 8.0, 150 mM NaCl, 0.1% Tween 20) followed by overnight incubation with the primary antibody at 4 °C. The following antibodies were used with the dilution ratio noted: rabbit anti-HMGB1 (1:1000, Cell Signaling Technology, #6893), rabbit anti-γ-H2A.X (1:1000, Cell Signaling Technology, #9718), rabbit anti-LC3B (1:1000, Cell Signaling Technology, #3868), mouse anti-GSTT1 (1:1000, GeneTex, GTX109250), rabbit anti-GSTM1 (1:1000, R&D system, MAB6894), mouse anti-GAPDH (1:50000, Abcam, ab8245). A peroxidase conjugated horse anti-mouse IgG secondary antibody (1:20000, Vector Laboratories, PI-2000) or peroxidase conjugated goat anti-Rabbit IgG secondary antibody (1:20000, Vector Laboratories, PI-1000) was used for western blot. ECL signals were developed and detected using the SuperSignal™ West Femto Maximum Sensitivity Substrate (Life Technologies, 34094) and a C-DiGit Chemiluminescent Western Blot Scanner (LI-COR). Uncropped scans of all the blots were shown in Supplementary Fig. 7 in the Supplementary Information.

INS+ cells = test: High-content survival / inhibitory curve, hESC-derived INS+ cells; type: cell-based, human
Protocol: (§1) The screening library ToxCast Phase I was obtained from the US Environmental Protection Agency, which contains approximately 2000 compounds dissolved at 20 mM in DMSO. The H1 hESC-derived population was dissociated with Accutase and re-plated onto laminin V-coated 384-well plates at 5000 cells per well. After 16 h incubation, cells were treated with individual compounds from the ToxCast library with four concentrations, including 20 nM, 200 nM, 2 μM, and 20 μM, for each compound. After 4 days, the cells were fixed with 10% formalin and stained with an INS antibody and DAPI, followed by automatic imaging and analysis by ImageXpress^MICRO Automated High-Content Analysis System (Molecular Devices) to count the numbers of INS^+ and INS^− cells. The survival rate was calculated by dividing the numbers of INS^+ cells in compound treated conditions by the average number of INS^+ cells in DMSO-treated conditions. The compounds that induced more than 60% reduction of the survival rate of INS^+ cells and less than 20% of the INS^− cells were chosen as primary hits. Hit compounds were then selected and validated in three additional independent experiments using the same protocol as the primary screening.
hESCs-derived INS^+ cells, MSCs[43], neurons, and hepatocytes[44] were derived based on the reported protocols and re-plated on 96-well plates with Accutase digestion. Cardiomyocytes (CMs) were differentiated from H9-MYH6: mCherry reporter line, based on the reported protocol. After overnight incubation, cells were treated with DMSO or different doses of hit compounds for 4 days. After fixation, the cells were stained with markers for each cell type. DAPI was used to stain cell nuclei. Plates were analyzed by ImageXpress^MICRO Automated High-Content Analysis System.

INS- cells = test: High-content survival / inhibitory curve, hESC-derived INS- cells; type: cell-based, human; conditions: Homo sapiens, 96 h; H1 hESC-derived, β-cell differentiation protocol 1, 4 days treatment, n = 8
Protocol: as §1, with “Hit compounds were then selected and validated in three additional independent experiments using the same protocol as the primary screening.” left out
hESCs-derived INS^+ cells, MSCs[43], neurons, and hepatocytes[44] were derived based on the reported protocols and re-plated on 96-well plates with Accutase digestion. […] Plates were analyzed by ImageXpress^MICRO Automated High-Content Analysis System.

Row | Structure (SMILES) | rescue of propargite-induced β-cell-specific death in human islets (primary human islets) | rescue of propargite-induced DNA damage (γ-H2A.X expression) (MIN6 cells) | rescue of propargite-induced necrosis (extracellular HMGB1) (MIN6 cells) | rescue of survival rate of INS+ cells after propargite treatment (INS+ cells; 2 mM GSH) | IC50 (INS+ cells; Homo sapiens, 96 h, read-out: IC50 for INS+ cells) | IC50 (INS- cells)
1 | N[C@@H](CCC(=O)N[C@@H](CS)C(=O)NCC(=O)O)C(=O)O [GSH, glutathione, reference compound] | rescued | fully rescued | partially rescued | fully rescued | – | –
2 | O=C(NCc1cccnc1)Nc1ccc([N+](=O)[O-])cc1 [Vacor, N-3 pyridylmethyl-N′’-4-nitrophenyl urea] | – | – | – | – | 4.89 µM | 61.6 µM
